Patent US11932877B2, “Human fibrolamellar hepatocellular carcinomas (hFL-HCCs)” (priority 2015, dated 2024)
Entries after “also recorded” stand apart in the source; their conditions may differ.

Key:
hFL-HCC cells of TU-2010 [1] = experiment: Cell proliferation assay (WST-1) on monolayer cultures of hFL-HCC cells; format: cell-based, human
Procedure: For cell proliferation assays, 3×10^4 hFL-HCC cells of TU-2010 were depleted of host mesenchymal cells by magnetic sorting of xenotransplantable tumor cell suspension and then were seeded into each well of a 96-well plate and cultured overnight with Kubota's Medium+5% FBS. […] Cell proliferation was evaluated using the Cell Proliferation Reagent WST-1 (Roche Applied Science, Mannheim, Germany). After incubation at 37° C. for 2 hours, the absorbance at 450 nm was measured.

hFL-HCC cells of TU-2010 [2] = experiment: Spheroid formation assay; format: cell-based, human; settings: spheroids in serum-free Kubota's Medium, low attachment plates
Procedure: For secondary spheroid formation assays, the 1st spheroids were collected, subsequently dissociated with NeuroCult Chemical Dissociation Kit ([…] Technologies). Cell suspension was centrifuged at 700 rpm 10 min and resuspended with KM. After 2 weeks, the number of spheroids (100 μm>) were counted.

hFL-HCC = experiment: Treatment of the hFL-HCC patient from whom TU-2010 was derived; format: in vivo, human; settings: for clinical response of the patient's tumor: one patient, metastatic hFL-HCC; for disease course under treatment / tolerability in the patient: Paclitaxel and thalidomide given together, chosen from sensitivity studies

Compound: O=C(CCCCCCC(=O)NO)NO [SBHA, suberic bis-hydroxamic acid]
- inhibitory effect on hFL-HCC cell survival and growth (hFL-HCC cells of TU-2010 [1]; 10 μM and 20 μM, drug added for 3 days): strong inhibitory effects
- inhibition of hFL-HCC cell growth (hFL-HCC cells of TU-2010 [1]; 10 μM and 50 μM): strongly inhibited
- suppression of hFL-HCC survival and growth in spheroid cultures compared with monolayer cultures (hFL-HCC cells of TU-2010 [2]): even more sensitive to inhibition

Compound: N.N.[Cl][Pt][Cl] [cisplatinum]
- clinical response of the patient's tumor (hFL-HCC): limited or no response

Compound: O=C(CCCCCCC(=O)Nc1ccccc1)NO [SAHA, suberoylanilide hydroxamic acid]
- suppression of hFL-HCC survival and growth in spheroid cultures compared with monolayer cultures (hFL-HCC cells of TU-2010 [2]): even more sensitive to inhibition

Compound: O=c1[nH]cc(F)c(=O)[nH]1 [5-FU]
- clinical response of the patient's tumor (hFL-HCC): limited or no response

Compound: Nc1ccn([C@@H]2O[C@H](CO)[C@@H](O)C2(F)F)c(=O)n1 [gemcitabine]
- clinical response of the patient's tumor (hFL-HCC): limited or no response

Compound: O=C1CCC(N2C(=O)c3ccccc3C2=O)C(=O)N1 (centres unmarked) [thalidomide]
- disease course under treatment (hFL-HCC): continued disease progression
- tolerability in the patient (hFL-HCC): poorly tolerated
- clinical response of the patient's tumor (hFL-HCC): limited or no response

Compound: CC(=O)O[C@H]1C(=O)[C@@]2(C)[C@H]([C@H](OC(=O)c3ccccc3)[C@]3(O)C[C@H](OC(=O)[C@H](O)[C@@H](NC(=O)c4ccccc4)c4ccccc4)C(C)=C1C3(C)C)[C@]1(OC(C)=O)CO[C@@H]1C[C@@H]2O [Paclitaxel]
- disease course under treatment (hFL-HCC): continued disease progression
- tolerability in the patient (hFL-HCC): poorly tolerated

Compound: bevacizumab
- clinical response of the patient's tumor (hFL-HCC): limited or no response

Compound: COc1cccc2c1C(=O)c1c(O)c3c(c(O)c1C2=O)C[C@@](O)(C(=O)CO)C[C@@H]3O[C@H]1C[C@H](N)[C@H](O)[C@H](C)O1 [doxorubicin]
- clinical response of the patient's tumor (hFL-HCC): limited or no response

Compound: CNC(=O)c1cc(Oc2ccc(NC(=O)Nc3ccc(Cl)c(C(F)(F)F)c3)cc2)ccn1 [sorafenib]
- clinical response of the patient's tumor (hFL-HCC): limited or no response

Compound: CS(=O)(=O)c1ccc(C(=O)Nc2ccc(Cl)c(-c3ccccn3)c2)c(Cl)c1 [GDC-0449, Vismodegib]
- suppression of survival and proliferation (growth) of hFL-HCC cells (hFL-HCC cells of TU-2010 [1]; 4 μM and especially 20 μM, drug added for 3 days): strongly inhibited; also recorded: suppress survival and proliferation
- suppression of hFL-HCC survival and growth in spheroid cultures compared with monolayer cultures (hFL-HCC cells of TU-2010 [2]): even more sensitive to inhibition; also recorded: far more effective
